# From patent US11944685B2, “Preparation method and application of novel injection abiraterone derivative” (TIANJIN HAIRUNJIAHE INNOVATIVE PHARMACEUTICAL RESEARCH …, priority 2021, dated 2024)
# Experiments:
# [1] = tested on: human prostate cancer cells (DU145); conditions: 2.5-160 μM, incubation 48 hours, CCK8; compared with Abiraterone AA
# Experimental: (§1) Cell survival rate tested by CCK8 method: after the solution was pipetted from the wells, each well was added with 10 μl of CCK8 reagent and 100 μl of serum-free medium for further culture for 4 hours. An absorbance value of each well at 450 nm was determined using a microplate reader.
# [2] = tested on: human prostate cancer cells (LNCaP); conditions: 2.5-160 μM, incubation 48 hours, CCK8; compared with Abiraterone AA
# Experimental: as §1
# [3] = Organ indexes and body weights of prostate cancer LNCaP tumor-bearing mice; assay type: in vivo, nude mice; conditions: 28 days; for body weights of the mice: vs normal group
# Experimental: A normal group (Normal) was not given any treatment; a model group (NS) received a daily injection of an equal volume of physiological saline; an AA group (150 mg/kg/d p.o.) was administrated intragastrically, once daily; and an AA-DTPA group (35 mg/kg/w i.v.) and an AA-DTPA group (52.5 mg/kg/w i.v.) were administrated from tail veins once weekly.
# Diameters of the xenograft tumors of the nude mice were measured with vernier calipers, and the anti-tumor effect of the Abiraterone was dynamically observed.
# Two days following the last administration, the mice were sacrificed, and hearts, livers, spleens, lungs, kidneys, and testes were dissected off and weighed, and organ indexes [organ index=organ weight/(body weight−tumor weight), unit: mg/g] were calculated.
# [4] = Toxicity study: blood routine, blood biochemistry and tissue pathology of healthy ICR male mice; assay type: in vivo; conditions: 28 days
# Experimental: The influence of the polyaminopolycarboxylic acid modified Abiraterone derivative AA-DTPA prepared in Example 5 on blood routine, blood biochemistry and pathological tissues of ICR healthy male mice following administration for 28 days includes the following steps:
# 20 ICR mice were selected, and were divided into 4 groups (NS group, positive control group AA 150 mg/kg/d p.o., and experimental groups AA-DTPA 35 mg/kg/w and 52.5 mg/kg/w i.v.), each of which had 5 mice.
# The mice were administrated intragastrically once daily, and administrated intravenously, […], and blood was sampled for submission following the treatment for 28 days; all mice were sacrificed by cervical dislocation, hearts, livers, spleens, lungs, kidneys, and testes were dissected and collected, and fixed with 10% formaldehyde; and after being embedded by paraffin, the organs were sectioned, and histopathological examination was performed after HE staining (see FIG. 13 for results from blood routine experiments, FIG. 14 for results from blood biochemistry experiments, and FIG. 15 for results from histopathological experiments).
# [5] = Pharmacokinetic study in rats (plasma, LC-MS/MS); assay type: in vivo, SD rats
# Experimental: Pharmacokinetics experiments of the polyaminopolycarboxylic acid modified abiraterone derivative AA-DTPA prepared in Example 2 in rats includes the following steps:
# A total of eight healthy male SD rats weighing 220+/−20 g were randomly divided into 2 groups, with 4 rats in each group; one group was administered with AA-DTPA from tail veins of the rats at a dose of 8 mg/kg in a volume of 0.2 ml/200 g rat; the other group was administrated intragastrically with AA at a dose of 30 mg/kg in a volume of 0.2 ml/200 g rat; blood samples were collected at time points of 5, 15, and 30 minutes, as well as 1, 2, 4, 6, 12, and 24 hours before and after administration for both groups; and at each time point, 0.5 ml of blood was sampled from canthi, and was placed in a heparinized plastic centrifuge tube, centrifugation was performed at 3000 r/min for 10 minutes, and plasma was separated therefrom.
# 50 μl of rat plasma samples+5 μl of methanol ice (1:1, v/v)+150 μl of precipitant were taken, and fully whirled and shaken for 3 minutes, a mixture was then centrifuged at 4° and 12000 r/min for 10 minutes, and a supernatant was pipetted, and analyzed with sample injection by LC-MS/MS (liquid chromatography-tandem mass spectrometry).
# [6] = tested on: human prostate cancer LNCaP derived xenograft tumors; experiment: Inhibition of growth of human prostate cancer LNCaP derived xenograft tumors of nude mice; conditions: for tumor inhibition effect compared with the AA group: 28 days; for tumor growth: treatment for 28 days
# [7] = healthy male ICR mice, 35 and 52.5 mg/kg/w i.v. vs AA 150 mg/kg/d p.o.
# [8] = healthy male ICR mice, 35 and 52.5 mg/kg/w i.v.
# [9] = intravenous injection (tail vein) 8 mg/kg
# [10] = intragastric administration 30 mg/kg
structure (smiles),measurement,setting,value
"CC12CCC(OC(=O)CN(CCN(CCN(CC(=O)O)CC(=O)O)CC(=O)O)CC(=O)O)CC1=CCC1C2CCC2(C)C(c3cccnc3)=CCC12 (stereo not drawn) [AA-DTPA, diethylenetriaminepentaacetic acid modified Abiraterone derivative]","in vitro anti-tumor effect (DU145), cell survival rate",[1],superior to the in vitro anti-tumor effect of Abiraterone AA
same,"in vitro anti-tumor effect (LNCaP), cell survival rate",[2],superior to the in vitro anti-tumor effect of Abiraterone AA
same,body weights of the mice,[3]; 35 mg/kg i.v. weekly,equivalent to those of the mice in the normal group
same,body weights of the mice,[3]; 52.5 mg/kg i.v. weekly,equivalent to those of the mice in the normal group
same,"indexes of hearts, livers, lungs, kidneys and testes vs model group",[3]; AA-DTPA treatment group (35 and 52.5 mg/kg/w i.v.),No significant difference
same,organ toxicity compared with AA under the treatment dose,[3]; LNCaP tumor-bearing mice,lower than that of the AA
same,histopathology of lungs,"[4]; 52.5 mg/kg/w i.v., HE staining",mild pathological changes
same,organ toxicity (histopathology),[4]; 35 and 52.5 mg/kg/w i.v.,no obvious organ toxicity
same,"histopathology of hearts, spleens, kidneys and testes","[4]; 35 and 52.5 mg/kg/w i.v., HE staining",no abnormal changes
same,effect on alanine aminotransferase and aspartate aminotransferase compared with AA group,[4]; [7],less effect
same,effect on number of lymphocytes and monocytes compared with AA group,[4]; [7],less effect
same,effect on blood biochemistry,[4]; [8],less effect
same,effect on blood routine,[4]; [8],less effect
same,toxicity compared with AA,[4]; healthy male ICR mice,less toxic than that of the AA
same,average clearance rate,[5]; [9],8.55 mL/min/kg
same,half-life period,[5]; [9],0.26 h
same,plasma concentration-time profile,[5]; [9],double exponential decay
same,tumor inhibition effect compared with the AA group,[6]; 35 mg/kg/w i.v. vs AA 150 mg/kg/d p.o.,better tumor inhibition effects
same,tumor growth,[6]; 35 mg/kg/w i.v.,significantly inhibited
same,tumor inhibition effect compared with the AA group,[6]; 52.5 mg/kg/w i.v. vs AA 150 mg/kg/d p.o.,better tumor inhibition effects
same,tumor growth,[6]; 52.5 mg/kg/w i.v.,significantly inhibited
"CC12CCC(OC(=O)CN(CCN(CCN(CCN(CC(=O)O)CC(=O)O)CC(=O)O)CC(=O)O)CC(=O)O)CC1=CCC1C2CCC2(C)C(c3cccnc3)=CCC12 (stereo not drawn) [AA-TTHA, triethylenetetramine hexaacetic acid modified Abiraterone derivative]","in vitro anti-tumor effect (DU145), cell survival rate",[1],superior to the in vitro anti-tumor effect of Abiraterone AA
same,"in vitro anti-tumor effect (LNCaP), cell survival rate",[2],superior to the in vitro anti-tumor effect of Abiraterone AA
"C[C@]12CC[C@H](O)CC1=CC[C@@H]1[C@@H]2CC[C@]2(C)C(c3cccnc3)=CC[C@@H]12 [AA, Abiraterone]",heart indexes,[3]; 150 mg/kg/d p.o.,slight decline
same,"indexes of livers, lungs and kidneys vs model group",[3]; 150 mg/kg/d p.o.,no significant difference
same,testis indexes,"[3]; 150 mg/kg/d p.o., compared with normal group and model group",testicular atrophy and a sharp decrease in testis indexes
same,"histopathology of hearts, spleens, kidneys and testes","[4]; 150 mg/kg/d p.o., HE staining",no abnormal changes
same,histopathology of livers,"[4]; 150 mg/kg/d p.o., HE staining",mild pathological changes
same,histopathology of lungs,"[4]; 150 mg/kg/d p.o., HE staining",mild pathological changes
same,absorption in vivo,[5]; [10],absorbed slowly
same,peak value of AA concentration in blood plasma,[5]; [10],15.28 ± 1.24 ng/mL
same,time to peak plasma concentration,[5]; [10],0.5 h
same,half-life,"[5]; male, SD, rat, plasma, po, intragastric administration 30 mg/kg, read-out: half-life period (converted)",8.46 h
